This is an account of results in US9029406B2 (Seattle Genetics, Inc, priority 2011, dated 2015).

SMILES strings stand for the structures. Where a SMILES comes first, the peptide text is derived from it. [ ]: non-standard residue; d: D form. The star is where a group is joined. Dolaproine = CO[C@@H]([C@@H]1CCCN1)[C@@H](C)C(=O)O; Dil = CC[C@H](C)[C@H](NC)[C@@H](CC(=O)O)OC; X1 = C[C@@H](N*)[C@@H](O)c1ccccc1; NMeV = CN[C@H](C(=O)O)C(C)C

Data set [1] relates to human colon carcinoma cell line HT29 wt. Put plainly: Antiproliferative effect on the HT29 wt cell line (MTT assay). In kind it is cell-based. To be noted: incubation 48 h to 96 h. As for the experimental part: B-1. Determination of the Antiproliferative Effect on the HT29 Wt Cell Line:
A defined cell count of the human colon carcinoma cell line HT29 wt (wild type) was sown in a 96-well microtiter plate in whole medium (10% FCS-RPMI) (2500 cells/well) and incubated overnight at 37° C./5% CO2. After 18 hours, the inoculation medium was replaced by fresh medium with 10% FCS. The treatment started with addition of the respective test substance. Of the substances to be investigated, dose-effect curves were determined in a concentration range of 10^−5 M to 10^−14 M (1:10 dilution series). Incubation times of 48 h to 96 h were selected. Proliferation was detected with the help of the MTT assay (ATCC, Manassas, Va., USA, catalog no. 30-1010K). After the end of the selected incubation time, the MTT reagent was incubated with the cells for 4 h before lysis of the cells was performed overnight by adding the detergent. The dye that was formed was detected at 570 nm. The proliferation with otherwise identically treated cells but not with the test substance was defined as the 100% value. The data obtained from this test represents triple determinations, and at least two independent experiments were performed.

Data set [2] in a line: Cell permeability, flux assay using Caco-2 cells. The class given is in vitro ADME. To be noted: human; Caco-2 flux assay, basal to apical, 2 h incubation. As for the experimental part: (§1) B-4. Determination of Cell Permeability:
(§2) The cell permeability of a substance can be analyzed by in vitro testing in a flux assay using Caco-2 cells [M. D. Troutman and D. R. Thakker, Pharm. Res. 20 (8), 1210-1224 (2003)]. To do so, the cells were cultured for 15-16 days on 24-hole filter plates. To determine the permeation, the respective test substance was applied to the cells either apically (A) or basally (B) in a HEPES buffer and incubated for 2 h. After 0 h and after 2 h, samples were taken from the cis- and trans-compartments. The samples were separated by HPLC (Agilent 1200, Böblingen, Germany) using reverse phase columns. The HPLC system was coupled via a turbo ion spray interface to an API 4000 triple quadrupole mass spectrometer (Applied Biosystems Applera, Darmstadt, Germany). The permeability was evaluated on the basis of a Papp value, which was calculated using the equation published by Schwab et al. [D. Schwab et al., J. Med. Chem. 46, 1717-1725 (2003)]. A substance was classified as being actively transported if the ratio of Papp (B−A) to Papp (A−B) was >2 or <0.5.
(§3) The permeability of B to A [Papp (B−A)] is of crucial importance for toxophores that are released intracellularly. The lower this permeability, the longer is the dwell time of the substance in the cell after intracellular release and thus also the time available for an interaction with the biochemical target (here: tubulin).

Another data set has as its system Caco-2 cells. Put plainly: Cell permeability, flux assay using Caco-2 cells. To be noted: Caco-2 flux assay, basal to apical, 2 h incubation. The class given is in vitro ADME. On the procedure: as §1, §2, §3
On the technique in general: Caco-2 monolayers are a common model of the intestinal barrier.

The mark [3] stands for this setting: Homo sapiens, HT-29, HT29 wt cells.

Turning to `CC[C@H](C)[C@@H]([C@@H](CC(=O)N1CCC[C@H]1[C@H](OC)[C@@H](C)C(=O)N[C@H](/C=C/c1ccc(C(=O)O)cc1)Cc1ccccc1)OC)N(C)C(=O)[C@@H](NC(=O)[C@H](C(C)C)N(C)CCCC(=O)O)C(C)C` [Example 11], the concentration for half-maximal inhibition (IC50) in data set [1] (setting [3]) worked out at 4.5 nM. This compound came in with a Papp B→A at 2 h in data set [2] of 0.2 ×10⁻⁶ cm/s. As for `CC[C@H](C)[C@@H]([C@@H](CC(=O)N1CCC[C@H]1[C@H](OC)[C@@H](C)C(=O)N[C@H](C)[C@@H](O)c1ccccc1)OC)N(C)C(=O)[C@@H](NC(=O)[C@@H](NC)C(C)C)C(C)C` [MMAE, monomethylauristatin E, reference compound] (H-[NMeV]V[Dil][Dolaproine]-X1), in the data set with Caco-2 cells, the “Papp (B-A)” value was found to be 8.9 ×10⁻⁶ cm/s.

`CC[C@H](C)[C@@H]([C@@H](CC(=O)N1CCC[C@H]1[C@H](OC)[C@@H](C)C(=O)N[C@H](C)[C@@H](O)c1ccccc1)OC)N(C)C(=O)[C@@H](NC(=O)[C@H](C(C)C)N(C)CCCC(=O)O)C(C)C` [Example 9, N-(3-Carboxypropyl)-N-methyl-L-valyl-N-[(3R,4S,5S)-1-{(2S)-2-[(1R,2R)-3-{[(1S,2R)-1-hydroxy-1-phenylpropan-2-yl]amino}-1-methoxy-2-methyl-3-oxopropyl]pyrrolidin-1-yl}-3-methoxy-5-methyl-1-oxoheptan-4-yl]-N-methyl-L-valinamide] yielded an IC50 in data set [1] (setting [3]) of 6 nM. The same compound registered an apparent permeability from basolateral to apical (Papp B→A) at 2 h in data set [2] of 0.45 ×10⁻⁶ cm/s.

In turn, `CC[C@H](C)[C@@H]([C@@H](CC(=O)N1CCC[C@H]1[C@H](OC)[C@@H](C)C(=O)N[C@@H](Cc1ccccc1)C(=O)O)OC)N(C)C(=O)[C@@H](NC(=O)[C@@H](NC)C(C)C)C(C)C` [MMAF, monomethylauristatin F, reference compound] (H-[NMeV]V[Dil][Dolaproine]F-OH) displayed a half-inhibitory concentration (IC50) in data set [1] (HT29 wt cells) of 10 nM. For the same compound, the “Papp (B-A)” value with Caco-2 cells was found to be 7.3 ×10⁻⁶ cm/s. In data set [1] (setting [3]), `CC[C@H](C)[C@@H]([C@@H](CC(=O)N1CCC[C@H]1[C@H](OC)[C@@H](C)C(=O)NCCc1ccccc1)OC)N(C)C(=O)[C@@H](NC(=O)[C@H](C(C)C)N(C)CCCC(=O)O)C(C)C` [Example 8, N-(3-Carboxypropyl)-N-methyl-L-valyl-N-[(3R,4S,5S)-3-methoxy-1-{(2S)-2-[(1R,2R)-1-methoxy-2-methyl-3-oxo-3-[(2-phenylethyl)amino]propyl}pyrrolidin-1-yl}-5-methyl-1-oxoheptan-4-yl]-N-methyl-L-valinamide] had an IC50 of 0.5 nM. The compound also showed a Papp B→A at 2 h in data set [2] of 1 ×10⁻⁶ cm/s. On to `CC[C@H](C)[C@@H]([C@@H](CC(=O)N1CCC[C@H]1[C@H](OC)[C@@H](C)C(=O)NCCc1c[nH]c2ccccc12)OC)N(C)C(=O)[C@@H](NC(=O)[C@H](C(C)C)N(C)CCCC(=O)O)C(C)C` [Example 7, N-(3-Carboxypropyl)-N-methyl-L-valyl-N-[(3R,4S,5S)-1-{(2S)-2-[(1R,2R)-3-{[2-(1H-indol-3-yl)ethyl]amino}-1-methoxy-2-methyl-3-oxopropyl]pyrrolidin-1-yl}-3-methoxy-5-methyl-1-oxoheptan-4-yl]-N-methyl-L-valinamide], for which the basolateral-to-apical permeability (Papp B→A) at 2 h in data set [2] was 1.1 ×10⁻⁶ cm/s. In turn, `CC[C@H](C)[C@@H]([C@@H](CC(=O)N1CCC[C@H]1[C@H](OC)[C@@H](C)C(=O)N[C@H](Cc1ccccc1)c1nnc(-c2ccccc2)o1)OC)N(C)C(=O)[C@@H](NC(=O)[C@H](C(C)C)N(C)CCCC(=O)O)C(C)C` [Example 6, N-(3-Carboxypropyl)-N-methyl-L-valyl-N-[(3R,4S,5S)-3-methoxy-1-{(2S)-2-[(1R,2R)-1-methoxy-2-methyl-3-oxo-3-{[(1R)-2-phenyl-1-(5-phenyl-1,3,4-oxadiazol-2-yl)ethyl]amino}propyl]pyrrolidin-1-yl}-5-methyl-1-oxoheptan-4-yl]-N-methyl-L-valinamide] had an IC50 in data set [1] (setting [3]) of 0.1 nM. For the same compound, the Papp B→A at 2 h in data set [2] was found to be 4.5 ×10⁻⁶ cm/s.

The compound `CC[C@H](C)[C@@H]([C@@H](CC(=O)N1CCC[C@H]1[C@H](OC)[C@@H](C)C(=O)N[C@H](/C=C/c1ccccc1)Cc1ccccc1)OC)N(C)C(=O)[C@@H](NC(=O)[C@H](C(C)C)N(C)CCCC(=O)O)C(C)C` [Example 3, N-(3-Carboxypropyl)-N-methyl-L-valyl-N-[(3R,4S,5S)-1-{(2S)-2-[(1R,2R)-3-{[(2S,3E)-1,4-diphenylbut-3-en-2-yl]amino}-1-methoxy-2-methyl-3-oxopropyl]pyrrolidin-1-yl}-3-methoxy-5-methyl-1-oxoheptan-4-yl]-N-methyl-L-valinamide] displayed a half-inhibitory concentration (IC50) in data set [1] (setting [3]) of 0.3 nM. The apparent permeability from basolateral to apical (Papp B→A) at 2 h in data set [2] stood at 17.9 ×10⁻⁶ cm/s. With `CC[C@H](C)[C@@H]([C@@H](CC(=O)N1CCC[C@H]1[C@H](OC)[C@@H](C)C(=O)N[C@@H](Cc1ccccc1)CS(=O)(=O)Cc1ccccc1)OC)N(C)C(=O)[C@@H](NC(=O)[C@H](C(C)C)N(C)CCCC(=O)O)C(C)C` [Example 4], the IC50 in data set [1] (setting [3]) came out at 1.1 nM. The apparent permeability from basolateral to apical (Papp B→A) at 2 h in data set [2] was 1.9 ×10⁻⁶ cm/s. The like results for `CC[C@H](C)[C@@H]([C@@H](CC(=O)N1CCC[C@H]1[C@H](OC)[C@@H](C)C(=O)N[C@@H](Cc1ccccc1)c1nnc(-c2ccccc2)o1)OC)N(C)C(=O)[C@@H](NC(=O)[C@H](C(C)C)N(C)CCCC(=O)O)C(C)C` [Example 5, N-(3-Carboxypropyl)-N-methyl-L-valyl-N-[(3R,4S,5S)-3-methoxy-1-{(2S)-2-[(1R,2R)-1-methoxy-2-methyl-3-oxo-3-{[(1S)-2-phenyl-1-(5-phenyl-1,3,4-oxadiazol-2-yl)ethyl]amino}propyl]pyrrolidin-1-yl}-5-methyl-1-oxoheptan-4-yl]-N-methyl-L-valinamide] were, in that order, 0.1 nM and 2.9 ×10⁻⁶ cm/s. As to `CC[C@H](C)[C@@H]([C@@H](CC(=O)N1CCC[C@H]1[C@H](OC)[C@@H](C)C(=O)N[C@H](/C=C\Cc1ccccc1)Cc1ccccc1)OC)N(C)C(=O)[C@@H](NC(=O)[C@H](C(C)C)N(C)CCCC(=O)O)C(C)C` [Example 1, N-(3-Carboxypropyl)-N-methyl-L-valyl-N-[(3R,4S,5S)-1-{(2S)-2-[(1R,2R)-3-{[(2S,3Z)-1,5-diphenylpent-3-en-2-yl]amino}-1-methoxy-2-methyl-3-oxopropyl]pyrrolidin-1-yl}-3-methoxy-5-methyl-1-oxoheptan-4-yl]-N-methyl-L-valinamide], in data set [1] (setting [3]), the midpoint of inhibition, the IC50, lay at 15 nM. Compound `CC[C@H](C)[C@@H]([C@@H](CC(=O)N1CCC[C@H]1[C@H](OC)[C@@H](C)C(=O)N[C@H](/C=C\c1ccccc1)Cc1ccccc1)OC)N(C)C(=O)[C@@H](NC(=O)[C@H](C(C)C)N(C)CCCC(=O)O)C(C)C` [Example 2, N-(3-Carboxypropyl)-N-methyl-L-valyl-N-[(3R,4S,5S)-1-{(2S)-2-[(1R,2R)-3-{[(2S,3Z)-1,4-diphenylbut-3-en-2-yl]amino}-1-methoxy-2-methyl-3-oxopropyl]pyrrolidin-1-yl}-3-methoxy-5-methyl-1-oxoheptan-4-yl]-N-methyl-L-valinamide] had a half-inhibitory concentration (IC50) in data set [1] (setting [3]) of 3.3 nM. In data set [2], this compound registered an apparent permeability from basolateral to apical (Papp B→A) at 2 h of 15.7 ×10⁻⁶ cm/s.

As a reminder, the IC50 is the concentration that inhibits the measured activity by half. As a reminder, the Papp B→A is the apparent permeability from the basolateral to the apical side of a cell layer.
